# Laboratory results from patent US9121022B2, “Method for controlling herbicide-resistant plants” (priority 2010, dated 2015).
# Structures can show the parent of a compound that is named as a salt.
# Key:
# Type in all cases: in vivo
# [1] = tested on: Nicotiana benthamiana phytoene desaturase; test: single PDS ssDNA 22-mer on tobacco: bleaching of organs, seed set, germination (Example 12)
# Experimental: Four-week old tobacco (Nicotiana benthamiana) plants were used in all treatments. Two fully expanded leaves (one cotyledon, one true leaf) were conditioned by dipping into freshly made surfactant solution (0.1% SILWET L-77® brand surfactant in double-distilled water) for a few seconds and allowed to dry for 15-30 minutes. Twenty microliters of a single-stranded DNA (ssDNA) 22-mer oligonucleotide with the sequence […] (SEQ ID NO:39), corresponding to the nucleotides at positions 1099-1120 of Nicotiana benthamiana phytoene desaturase (SEQ ID NO:2) was applied as a 25 micromolar solution in 0.01% SILWET L-77® brand surfactant in 5 millimolar sodium phosphate buffer, pH 6.8 to the top surface of each conditioned leaf for a total of 40 microliters (1 nanomole oligonucleotide) per plant. Control plants were treated with the SILWET® brand surfactant solution without the DNA oligonucleotide.
# Flowers of both control and ssDNA-treated plants were allowed to set seed. Seeds were collected from mature fruits, weighed, and allowed to germinate. Seed weights were identical (about 11 mg per 100 seeds) and seed morphology appeared similar between the ssDNA-treated and the control plants.
# In a separate assay using a similar procedure, tobacco plants were conditioned by dipping in 0.1% SILWET L-77® brand surfactant in double-distilled water, allowed to dry for 15-30 minutes, and treated with the PDS ssDNA 22-mer (SEQ ID NO:39) applied as a 25 micromolar solution in 0.01% SILWET L-77® brand surfactant in 5 millimolar sodium phosphate buffer, pH 6.8 to the top surface of each conditioned leaf for a total of 40 microliters (1 nanomole oligonucleotide) per plant. Other plants were not conditioned with a surfactant treatment, but were treated only with 1 nanomole of the PDS ssDNA 22-mer (SEQ ID NO:39) applied either by infiltration with a needleless syringe (shown in FIG. 18B) or by hand application of drops to the leaf surface (not shown in FIG. 18B), and either as a 25 micromolar solution in 0.01% SILWET L-77® brand surfactant in 5 millimolar sodium phosphate buffer, pH 6.8 or as a 25 micromolar solution in 5 millimolar sodium phosphate buffer, pH 6.8 (without surfactant). Negative control plants were treated with the SILWET® brand surfactant buffer solution without the DNA oligonucleotide. Results are depicted in FIG. 18B.
# [2] = tested on: glyphosate-resistant Palmer amaranth containing 16 copies of EPSPS; test: glyphosate counter-ions with EPSPS polynucleotides, percent control and plant height (Example 35, Table 29); conditions: for Palmer control (%): Table 29: glyphosate salt 1682 g acid equivalent per hectare, with or without EPSPS polynucleotides IDT [1]-[4] in 0.5% SILWET L-77, 2% ammonium sulfate, 16-copy EPSPS Palmer amaranth, 3 replicates
# From the text: FIG. 38 depicts the effect of varying glyphosate counter-ions on herbicidal activity (presented as percent of weed control/kill, and as plant height) of topically applied polynucleotides (RNA) on glyphosate-resistant Palmer amaranth plants. A mixture of EPSPS polynucleotides (IDT [1] (SEQ ID NO:83-84), IDT [2] (SEQ ID NO:85-86), IDT [3] (SEQ ID NO:87-88), and IDT [4] (SEQ ID NO:89-90)) in 0.5% SILWET L-77® brand surfactant, 2% ammonium sulfate in 10 millimolar sodium phosphate buffer, pH 6.8 with 0.2% Roundup® WeatherMax® carrier (MON56151 tallowamine surfactant blend of tallowamine (16-18C) and cocoamine (12-14C) in the ratio of 55:45) and 1682 g acid equivalent per hectare of one of the glyphosate salts; K+ glyphosate, isopropylammonium+ glyphosate or monoethanolammonium+ glyphosate at 215 liters/acre by Milli spray on 3 replicates of 4-6 inch glyphosate-resistant Palmer amaranth containing 16 copies of EPSPS. Plant height was scored at 21 days after glyphosate treatment.
# [3] = tested on: Glyphosate-resistant Palmer amaranth plants (33, 36, or 57 copies EPSPS); test: spermine, spermidine or ammonium sulfate with dsRNA then glyphosate (Example 35, FIG. 39); conditions: for performance compared with 2% ammonium sulfate: 1 or 10 millimolar
# Experimental: The effect of the polyamine cations spermine (N,N′-bis(3-aminopropyl)butane-1,4-diamine) and spermidine (N-(3-aminopropyl)butane-1,4-diamine) on herbicidal activity of topically applied polynucleotides (RNA) on glyphosate-resistant Palmer amaranth plants was investigated. […] The dsRNA polynucleotide solutions were prepared with either 1 or 10 millimolar spermine or spermidine or 2% ammonium sulfate, in a 10 millimolar sodium phosphate (pH 6.8) buffer. Control solutions (without polynucleotides) were prepared with either 1 or 10 millimolar spermine or spermidine or 2% ammonium sulfate, in a 10 millimolar sodium phosphate (pH 6.8) buffer. Glyphosate-resistant Palmer amaranth plants (33, 36, or 57 copies EPSPS) were pre-sprayed with 1% SILWET L-77® brand surfactant. The dsRNA polynucleotide solutions (11.6 grams/acre) or buffer solutions were applied as drops on four lower fully expanded leaves of glyphosate resistant Palmer amaranth by pipetting. Two days following polynucleotide treatment the plants were sprayed with glyphosate (3360 g acid equivalent per hectare of Roundup® WeatherMAX® brand herbicide).
# [4] = tested on: glyphosate-resistant Palmer amaranth plants; test: additives (salts, EDTA, glycerin) to polynucleotide spray solutions, percent control and plant height (Example 35, Tables 26-28); conditions: additive in spray solution
# From the text: The efficacy of different substances (including salts, a chelating agent, a humectant, and polyamines) as polynucleotide transferring agents or as enhancers of a known polynucleotide transferring agent was investigated.
# [5] = tested on: Palmer amaranth phytoene desaturase (PDS); test: sequence specificity of PDS dsRNA on Palmer amaranth, leaf bleaching (Example 11)
# From the text: Palmer amaranth phytoene desaturase (PDS) has the sequence […] […] […] […] […] […] […] […] […] […] […] […] […] […] […] […] […] […] […] […] […] […] […] […] (SEQ ID NO:37). A 678 base pair dsRNA polynucleotide with an anti-sense strand capable of hybridizing to the RNA encoded by the nucleotides at positions 317-994 (shown as underlined text) in SEQ ID NO:37 and a 198 base pair dsRNA polynucleotide with an anti-sense strand capable of hybridizing to the RNA encoded by the nucleotides at positions 797-994 (shown as italicized and underlined text) in SEQ ID NO:37 were synthesized.
# Nicotiana benthamiana phytoene desaturase has the sequence […] […] […] […] […] […] […] […] […] […] […] […] […] […] […] […] […] […] […] […] […] […] […] […] […] […] (SEQ ID NO:38). A 685 base pair dsRNA polynucleotide with an anti-sense strand capable of hybridizing to the RNA encoded by the nucleotides at positions 421-1105 (shown as underlined text) in SEQ ID NO:38 and a 192 base pair dsRNA polynucleotide with an anti-sense strand capable of hybridizing to the RNA encoded by the nucleotides at positions 914-1105 (shown as italicized and underlined text) in SEQ ID NO:38 were synthesized.
# Palmer amaranth plants having 16 copies of EPSPS and 5-8 inches high were treated with 0.1% SILWET L-77® brand surfactant solution freshly made with ddH2O. Four fully expanded leaves per plant were dipped into the SILWET L-77® brand surfactant solution for a few seconds, and allowed to dry for 30 minutes to 1 hour before application of the polynucleotide composition. Individual polynucleotide solutions were made for each of the 678 bp Palmer PDS dsRNA, 198 bp Palmer PDS dsRNA, the 685 bp Nicotiana benthamiana PDS dsRNA, and the 192 bp Nicotiana benthamiana PDS dsRNA (0.6 micromolar polynucleotide in 0.01% SILWET L-77® brand surfactant, 5 mM sodium phosphate buffer, pH 6.8). 10 microliters of polynucleotide solution (or buffer as a control) was applied to the top surface of each of the four pre-treated leaves per plant to provide a total of 40 microliters for each plant. Plants were kept in a growth chamber, and leaf bleaching was observed 3 days post treatment.
molecule,measurement,setting,value
"GGCAGTACAATTAAAGGAGATG (DNA, backbone not given here; listed as Nicotiana benthamiana) [SEQ ID NO:39]",bleaching without surfactant conditioning (FIG. 18B),"[1]; 1 nanomole by infiltration or hand application of drops, no conditioning","displayed bleaching of apical leaves, stems, and flowers"
same,"bleaching of apical leaves, stems, and flowers (FIG. 18A)",[1]; 1 nanomole per plant after surfactant conditioning,all displayed bleaching
same,germination rate,"[1]; seeds from ssDNA-treated plants, control 95 out of 100",4 out of 100
same,seed weight,"[1]; seeds from ssDNA-treated plants, identical to control",about 11 mg per 100 seeds
"O=C(O)CNCP(=O)(O)O [isopropylammonium salt of glyphosate, glyphosate, reference compound]",herbicidal activity by glyphosate salt,"[2]; 1682 g ae/ha glyphosate salt with IDT [1]-[4], 21 days after glyphosate treatment",better herbicidal activity compared to the potassium salt
"NCCCNCCCCNCCCN [spermine, N,N′-bis(3-aminopropyl)butane-1,4-diamine]",performance compared with 2% ammonium sulfate,[3],neither spermine nor spermidine at 1 or 10 millimolar performed as well as 2% ammonium sulfate
"OCC(O)CO [Glycerin, glycerin]",effect of additive on efficacy of the polynucleotides and herbicidal activity of glyphosate,[4],enhance the efficacy of the polynucleotides
"NCCCCNCCCN [spermidine, N-(3-aminopropyl)butane-1,4-diamine]",effect on 33-copy plants of polyamine alone,"[3]; 10 mM, without polynucleotides",stunted
same,performance compared with 2% ammonium sulfate,[3],neither spermine nor spermidine at 1 or 10 millimolar performed as well as 2% ammonium sulfate
CCCC[P+](CCCC)(CCCC)CCCC.[Br-] [tetrabutylphosphonium bromide],effect of additive on efficacy of the polynucleotides and herbicidal activity of glyphosate,[4],act similarly to ammonium sulfate
CC(C)N.O=C(O)CNCP(=O)(O)O [IPA + glyphosate],Palmer control (%),[2],9%
O=C(O)CNCP(=O)([O-])O.[K+] [K + glyphosate],Palmer control (%),[2],23%
Cl.N [ammonium chloride],effect of additive on efficacy of the polynucleotides and herbicidal activity of glyphosate,[4],act similarly to ammonium sulfate
NCCO.O=C(O)CNCP(=O)(O)O [MEA + glyphosate],Palmer control (%),[2],9%
"O=C(O)CN(CCN(CC(=O)O)CC(=O)O)CC(=O)O [ethylenediaminetetraacetic acid (EDTA), ethylenediaminetetraacetic acid]",effect of additive on efficacy of the polynucleotides and herbicidal activity of glyphosate,[4],act similarly to 2% ammonium sulfate
"198 bp Palmer PDS dsRNA: dsRNA to positions 797-994 of Palmer amaranth PDS (SEQ ID NO:37) (nucleic acid, listed as Amaranthus palmeri, complementary strand) sense: ACCGATTCCTGCAGGAGAAACATGGTTCTAAGATGGCCTTCCTAGACGGAAACCCTCCAGAGAGGCTGTGCATGCCTATTGTTAAACACATCGAGTCACTAGGTGGTGAAGTTAAACTTAACTCTCGTATACAAAAGATTCAGTTGGACCAGAGTGGAAGCGTGAAGAGTTTTTTGCTAAATAACGGGAGGGAAATAC",bleaching of leaves,"[5]; 0.6 micromolar, 40 microliters per plant, 3 days post treatment",showed bleaching of leaves
same,bleaching of leaves (FIG. 17),[5]; separate assay,apical leaf bleaching observed
